Assay results from patent US4112228A, “7-(D-α-Hydroxy-2-arylacetamido)-3-(2-carboxyalkyl-2,3-dihydro-s-tri azolo-[4,3-b]pyridazin-3-on-6-ylthiomethyl)-3-cephem-4-carboxylic acids and derivatives” (priority 1977, dated 1978).
Values after ≈ are worked out from the molar mass of the structure shown.

Legend:
E. coli = test: MIC by Steers' agar dilution method; type: cell-based; settings: Escherichia coli, strain not named (3rd of 3); MHA; Example 10; read-out: MIC
Sal. anthracis = test: microbe, parasite or virus in culture; type: cell-based
[1] = Stability in solution (remaining activity by paper disc assay); type: physicochemical; settings: for Remaining Activity (%): 0 days; for remaining at 48 h: 2 days; for remaining at 72 h: 3 days; for remaining at 168 h: 7 days
Procedure: Stability of BB-[…] was determined in both a 10% and an 0.02% solution. The stability is indicated as the relative activity remaining in the test solution at given periods to the initial solution. The activity was assayed using paper discs on B. subtilis PCI 219 plate (pH 6).

[2] = Nephrotoxicity test in rabbits; settings: 100 mg./kg. (iv)
Shig. dysenteriae = test: MIC by Steers' agar dilution method; settings: Shigella dysenteriae, MHA
Enterob. cloacae = test: MIC by Steers' agar dilution method
Sal. enteritidis = test: MIC by Steers' agar dilution method; settings: Salmonella enterica
D. pneumoniae = test: MIC by Steers' agar dilution method
[3] = 0.02% solution, pH 4 (0.1 M AcOH - NaOAc buffer)
[4] = 0.02% solution, pH 7 (0.1 M phosphate buffer)
[5] = 0.1 m nh4oh-nh4cl buffer, 0.02% solution, pH 9 (0.1 M NH4 OH--NH4 Cl buffer)
[6] = 10% aqueous solution, room temperature, pH 6.1 (unadjusted)

For `O=C(O)Cn1nc2ccc(SCC3=C(C(=O)O)N4C(=O)C(NC(=O)[C@H](O)c5ccccc5)[C@H]4SC3)nn2c1=O` (stereo partly drawn) [BB-S488, 7-(D-Mandelamido)-3-(2-carboxymethyl-2,3-dihydro-s-triazolo[4,3-b]pyridazin-3-on-6-ylthiomethyl)-3-cephem-4-carboxylic Acid], the MIC (E. coli) was 3.1 µg/mL (≈ 5.41 µM), the MIC (Sal. anthracis) was 0.1 µg/mL (≈ 0.175 µM) and the “Remaining Activity (%)” value [1, 3] was 100%. The remaining at 48 h [1, 3] was 93%, the remaining at 72 h [1, 3] was 78% and the remaining at 168 h [1, 3] was 102%. For the same compound, the “Remaining Activity (%)” value [1, 4] was 100%, the remaining at 48 h [1, 4] was 87% and the remaining at 72 h [1, 4] was 64%. For the same compound, the remaining at 168 h [1, 4] was 56%, the “Remaining Activity (%)” value ([1]; 0.02% solution, pH 9 (0.1 M NH4 OH--NH4 Cl buffer)) was 100% and the remaining at 24 h ([1]; 0.1 m nh4oh-nh4cl buffer, 0.02% solution, pH 9 (0.1 M NH4 OH--NH4 Cl buffer), 1 day) was 20%. The remaining at 48 h [1, 5] was 14%, the remaining at 72 h [1, 5] was 13% and the remaining at 168 h [1, 5] was 0%. For the same compound, the “Remaining Activity (%)” value [1, 6] was 100%, the remaining at 48 h [1, 6] was 128% and the remaining at 72 h [1, 6] was 90%. The remaining at 168 h [1, 6] was 116%, the Nephrotoxicity [2] was “No nephrotoxic sign was seen” and the MIC (Shig. dysenteriae; Example 10) was 0.025 µg/mL (≈ 0.0437 µM). It also gave an MIC (Shig. dysenteriae; Table 1) of 0.025 µg/mL (≈ 0.0437 µM), an MIC (Shig. dysenteriae; Sd-1, Table 3) of 0.1 µg/mL (≈ 0.175 µM) and an MIC (Enterob. cloacae; A9656, MHA, Table 1) of 3.1 µg/mL (≈ 5.41 µM). For the same compound, the MIC (Enterob. cloacae; El-1 A9656, HIA, Table 4) was 6.3 µg/mL (≈ 11 µM), the MIC (Enterob. cloacae; El-1 A9656, MHA, Table 3) was 3.1 µg/mL (≈ 5.41 µM) and the MIC (Enterob. cloacae; El-1 A9656, MHA, Table 4) was 3.1 µg/mL (≈ 5.41 µM). The MIC (Enterob. cloacae; El-1 A9656, NA, Table 4) was 12.5 µg/mL (≈ 21.8 µM), the MIC (Enterob. cloacae; El-2 A20364 (β-lactamase), HIA, Table 4) was 6.3 µg/mL (≈ 11 µM) and the MIC (Enterob. cloacae; El-2 A20364 (β-lactamase), MHA, Table 4) was 3.1 µg/mL (≈ 5.41 µM). The MIC (Enterob. cloacae; El-2 A20364 (β-lactamase), NA, Table 4) was 12.5 µg/mL (≈ 21.8 µM), the MIC (Enterob. cloacae; El-2 A20364, MHA, Table 3) was 3.1 µg/mL (≈ 5.41 µM) and the MIC (Enterob. cloacae; El-4 A20650, MHA, Table 3) was 1.6 µg/mL (≈ 2.79 µM). It also gave an MIC (Enterob. cloacae; El-6 A9657, MHA, Table 3) of 0.8 µg/mL (≈ 1.4 µM), an MIC (Enterob. cloacae; El-7 A9659, MHA, Table 3) of 1.6 µg/mL (≈ 2.79 µM) and an MIC (Enterob. cloacae; El-8 A9655, MHA, Table 3) of 1.6 µg/mL (≈ 2.79 µM). For the same compound, the MIC (Enterob. cloacae; El-9 A20021, MHA, Table 3) was > 100 µg/mL, the MIC (Enterob. cloacae; El-11 A20344 (β-lactamase), HIA, Table 4) was > 100 µg/mL and the MIC (Enterob. cloacae; El-11 A20344 (β-lactamase), MHA, Table 4) was > 100 µg/mL. For the same compound, the MIC (Enterob. cloacae; El-11 A20344 (β-lactamase), NA, Table 4) was > 100 µg/mL, the MIC (Enterob. cloacae; El-11 A20344, MHA, Table 3) was > 100 µg/mL and the MIC (Enterob. cloacae; El-12 A21006, MHA, Table 3) was 1.6 µg/mL (≈ 2.79 µM). It also gave an MIC (Enterob. cloacae; El-14 A20953, MHA, Table 3) of 0.8 µg/mL (≈ 1.4 µM), an MIC (Enterob. cloacae; MHA, Example 10) of 3.1 µg/mL (≈ 5.41 µM) and an MIC (Sal. enteritidis; A9531, MHA, Table 1) of 0.05 µg/mL (≈ 0.0873 µM). It also gave an MIC (Sal. enteritidis; MHA, Example 10) of 0.025 µg/mL (≈ 0.0437 µM), an MIC (Sal. enteritidis; Se-1 A9531, MHA, Table 3) of 0.1 µg/mL (≈ 0.175 µM) and an MIC (D. pneumoniae; Dp-2 Type I Neufeld, MHA, Table 2) of 0.2 µg/mL (≈ 0.349 µM). The MIC (D. pneumoniae; Dp-3 Type III, MHA, Table 2) was 0.2 µg/mL (≈ 0.349 µM), the MIC (D. pneumoniae; Dp-4 A9585, MHA, Table 2) was 0.2 µg/mL (≈ 0.349 µM) and the MIC (D. pneumoniae; Dp-5 A15069, MHA, Table 2) was 0.2 µg/mL (≈ 0.349 µM). It also gave an MIC (D. pneumoniae; Dp-6 A20167, MHA, Table 2) of 0.2 µg/mL (≈ 0.349 µM), an MIC (D. pneumoniae; Dp-7 A20759, MHA, Table 2) of 0.2 µg/mL (≈ 0.349 µM) and an MIC (D. pneumoniae; Dp-8 A20769, MHA, Table 2) of 0.2 µg/mL (≈ 0.349 µM). For the same compound, the MIC (D. pneumoniae; Dp-9 A20770, MHA, Table 2) was 0.2 µg/mL (≈ 0.349 µM) and the MIC (D. pneumoniae; Streptococcus pneumoniae) was 0.2 µg/mL (≈ 0.349 µM).
